Measured values published in patent US20250263423A1, “INHIBITORS OF RAS ONCOPROTEINS” (BridGene Biosciences, Inc., priority 2021, published 2025).

biological target: Kras G12D (Homo sapiens (Human), UniProt P01116, G12D); test: HTRF-based nucleotide exchange assay detecting GTP binding to K-Ras; assay type: biochemical; settings: SOS1 (aa 564-1049), fluorescently labelled GTP, compound incubated 1 h at RT
Description: Kras G12D was mixed with a-GST Tb antibody (1.5× solution) and 10 uL was delivered to reaction wells. A mixture of Kras G12D/aGST-Tb Ab/compound mixture was incubated for 1 h at RT. A 3× solution of SOS1 (aa 564-1049) and fluorescently labelled GTP* was prepared in reaction buffer and 5 μL of SOS1/GTP* solution was added to reaction well to initiate the exchange reaction. An IC50 was determined using a sigmoidal dose response (variable slope) equation. Note: Assay IC50 data are designated within the following ranges: A: ≤10 nM, B: >10 nM to ≤1000 nM, C: >1000 nM

Kras G12D, sequence (P01116-2 other isoform, or with tags, fused parts or gaps G12D): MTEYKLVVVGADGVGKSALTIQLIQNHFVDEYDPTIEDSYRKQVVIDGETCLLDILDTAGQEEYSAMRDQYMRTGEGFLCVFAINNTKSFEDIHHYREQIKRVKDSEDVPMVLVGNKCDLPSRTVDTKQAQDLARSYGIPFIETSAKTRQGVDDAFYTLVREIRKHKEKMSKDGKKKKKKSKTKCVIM

SMILES | IC50 [nM]
C#Cc1cccc2cc(O)cc(-c3ncc4c(N5CC6CCCC(C5)N6)nc(OCC56CCCN5CCC6)nc4c3F)c12 [Example 7, 4-(4-(3,9-diazabicyclo[3.3.1]nonan-3-yl)-8-fluoro-2-((tetrahydro-1H-pyrrolizin-7a(5H)-yl)methoxy)pyrido[4,3-d]pyrimidin-7-yl)-5-ethynylnaphthalen-2-ol] | ≤ 10
C#Cc1cccc2cc(O)cc(-c3ncc4c(N5C[C@@H]6C[C@H]5CN6)nc(OCC56CCCN5CCC6)nc4c3F)c12 (stereo in doubt) [Example 6, 4-(4-((1S,4S)-2,5-diazabicyclo[2.2.1]heptan-2-yl)-8-fluoro-2-((tetrahydro-1H-pyrrolizin-7a(5H)-yl)methoxy)pyrido[4,3-d]pyrimidin-7-yl)-5-ethynylnaphthalen-2-ol] | ≤ 10
C#Cc1cccc2cc(O)cc(-c3ncc4c(N5CC6COCC(C5)N6)nc(OCC56CCCN5CCC6)nc4c3F)c12 [Example 4, 4-(4-(3-oxa-7,9-diazabicyclo[3.3.1]nonan-7-yl)-8-fluoro-2-((tetrahydro-1H-pyrrolizin-7a(5H)-yl)methoxy)pyrido[4,3-d]pyrimidin-7-yl)-5-ethynylnaphthalen-2-ol] | ≤ 10
Fc1c(-c2cccc3cccc(Cl)c23)ncc2c(N3CC4CNCC4C3)nc(OCC34CCCN3CCC4)nc12 [Example 5, 4-[(3aR, 6aS)-2,3,3a,4,6,6a-hexahydro-1H-pyrrolo[3,4-c]pyrrol-5-yl]-7-(8-chloro-1-naphthyl)-8-fluoro-2-(1,2,3,5,6,7-hexahydropyrrolizin-8-ylmethoxy)pyrido[4,3-d]pyrimidine] | > 1000
Fc1c(-c2cccc3cccc(Cl)c23)ncc2c(N3C[C@H]4CC[C@@H](C3)N4)nc(OCC34CCCN3CCC4)nc12 [Example 3, 4-((1R,5S)-3,8-diazabicyclo[3.2.1]octan-3-yl)-7-(8-chloronaphthalen-1-yl)-8-fluoro-2-((tetrahydro-1H-pyrrolizin-7a(5H)-yl)methoxy)pyrido[4,3-d]pyrimidine] | ≤ 10
C#Cc1cccc2cc(O)cc(-c3ncc4c(N5CC6CC(C5)N6)nc(OCC56CCCN5CCC6)nc4c3F)c12 [Example 8, 4-[4-(3,6-diazabicyclo[3.1.1]heptan-3-yl)-8-fluoro-2-(1,2,3,5,6,7-hexahydropyrrolizin-8-ylmethoxy)pyrido[4,3-d]pyrimidin-7-yl]-5-ethynyl-naphthalen-2-ol] | ≤ 10
C[C@@H]1CN(c2nc(OCC34CCCN3CCC4)nc3c(F)c(-c4cccc5cccc(Cl)c45)ncc23)C[C@H](C)N1 [Example 1, 7-(8-chloronaphthalen-1-yl)-4-((3R,5S)-3,5-dimethylpiperazin-1-yl)-8-fluoro-2-((tetrahydro-1H-pyrrolizin-7a(5H)-yl)methoxy)pyrido[4,3-d]pyrimidine] | > 1000
C[C@H]1CN(c2nc(OCC34CCCN3CCC4)nc3c(F)c(-c4cccc5cccc(Cl)c45)ncc23)C[C@H](C)N1 [Example 2, 7-(8-chloronaphthalen-1-yl)-4-((3S,5S)-3,5-dimethylpiperazin-1-yl)-8-fluoro-2-((tetrahydro-1H-pyrrolizin-7a(5H)-yl)methoxy)pyrido[4,3-d]pyrimidine] | 10 to 1000
